Measured values from patent publication US4612302A, “Clinical use of somatostatin analogues” (Brigham and Women's Hospital, priority 1983, dated 1986).
Non-standard residues stand in square brackets, D forms with d. Residues, ends and D or L forms follow the SMILES beside them. No end group written: not given here.

What was measured:
[1] = test system: liver injury induced by galactosamine; assay: Galactosamine-induced liver injury (hepatic necrosis and inflammation) in rats; type: in vivo, female Spraque-Dawley rats; conditions: 28 hr after galactosamine 1 g/kg i.p., somatostatin 250 μg, analogues 125 μg i.p.; for Liver histology (Scale: 0-4): scale 0-4, 4 = greatest damage
Method: (§1) All of the experiments described below were performed in female Spraque-Dawley rats (ESS Laboratories, Lynnfield, Mass.) with an initial body weight of 150-180 g, and with unlimited access to Purina laboratory chow and tap water. Control and experimental groups consisted of 3-4 rats. Each experiment was repeated at least twice and the results were pooled. Analogue I is cyclo[L-Pro-Phe-D-Trp-Lys-Thr-L-Phe]. Analogue II is cyclo[L-Phe-Phe-L-Trp-Lys-Thr-D-Phe]. These are preferred compounds for all aspects of the invention. The compound can be synthesized according to the procedure described in Veber et al., Nature, 292, 55-58 (1981), which is herein incorporated by reference. Basically, the linear peptide is prepared by a solid phase technique, for example, using a Beckman 990 peptide synthesizer following the protocol described in Strachan et al, J. Med. Chem., 22, 586-588 (1979), which is herein incorporated by reference. The linear peptide can then be cyclized by the technique of Veber et al, Proc. Natl. Acad. Sci. USA, 75, 2636-2640 (1978), which is also herein incorporated by reference. Linear or cyclic somatostatin (Serono) or a somatostatin analogue was injected under mild ether anesthesia at 50 μg in 0.5 ml of saline into the jugular vein once daily for 3 consecutive days prior to injection with carbon. Control animals were injected with the same amount of saline. In all of the carbon clearance experiments, 0.1 ml/100 g of the supernatant of centrifuged (3000 rpm/15 min) colloidal carbon (Wagner's india ink) was injected i.v. under mild ether anesthesia. Blood samples (50 μl) were obtained with heparinized glass capillaries and by puncture of the retro-orbital venous plexus at 3, 6, 12 and 24 minutes after the administration of carbon. The blood samples were lysed in 2 ml of 0.1% Na2 CO3 solution and the quantity of carbon in the blood was measured.
The liver protection studies included the effect of somatostatin and analogues on liver injury induced by galactosamine or phalloidin. Galactosamine-induced hepatic necrosis and inflammation was produced by injecting rats with 1 g/kg of galactosamine i.p. at 0 hr. Regular somatostatin was injected at 250 μg, analogues at 125 μg i.p. at -30 and […]. The animals were killed at 28 hr after galactosamine. Liver damage was measured by the elevation of serum transaminase (SGOT) and by liver histology (scale: 0-4 with 4 indicating the greatest damage).

phagocytes = assay: Carbon clearance (colloidal carbon / India ink) from the blood of rats; type: in vivo, female Spraque-Dawley rats; conditions: for India ink (μl/ml blood) 3 min: 3 min after i.v. colloidal carbon; for India ink (μl/ml blood) 3 min / India ink (μl/ml blood) 6 min / India ink (μl/ml blood) 12 min / India ink (μl/ml blood) 24 min: 50 μg i.v. once daily for 3 days before carbon; for India ink (μl/ml blood) 6 min: 6 min after i.v. colloidal carbon; for India ink (μl/ml blood) 12 min: 12 min after i.v. colloidal carbon; for India ink (μl/ml blood) 24 min: 24 min after i.v. colloidal carbon; for Speed of action in carbon clearance compared with somatostatin: greater carbon clearance at 6 minutes than somatostatin; for Potency in carbon clearance compared with somatostatin: lower levels of carbon at the late time intervals
Method: Rats were injected either with saline or with a colloidal carbon suspension, and the time required for clearing of colloidal particles from the blood stream was measured. In a comparative experiment, zymosan, an agent known to increase the activity or phagocytes, was administered instead of the somatostatin analogue. In rats which received injections of saline, the disappearance of colloidal carbon from the blood was virtually linear, an expected result based on previous studies by others. Administration of a somatostatin analogue markedly accelerated the carbon clearance, even more so than for somatostatin itself.
as §1

[2] = test system: liver injury induced by phalloidin; assay: Phalloidin-induced liver and hepatic blood vessel lesions in rats; type: in vivo; conditions: phalloidin 0.12 mg per 100 g i.p.
Method: This toxin kills rats within about 4 hours after intraperitoneal injection. Rats injected with 0.12 mg phalloidin per 100 g body weight (i.p.) show a massive increase in liver size accompanied by hemorrhage. In a control group of rats given phalloidin but no somatostatin analogue, 22 of 24 rats died within 2-4 hours.
In both cases, rats were given saline (control), phalloidin alone, or phalloidin and a somatostatin analogue. Somatostatin analogues were given in subcutaneous injections in a solution of protamine sulfate and zinc chloride in order to prolong its effectiveness, or in normal saline.
In the biochemical experiments, the animals were also injected with Evans blue 15 min before autopsy. At autopsy the portal vein was perfused in situ with 20 ml of saline to remove blood from hepatic vaculature. Phalloidin caused a time dependent increase in the hepatic uptake of Evans blue, indicative of leakage of blood into the tissue through blood vessel lesions. Somatostatin analogue treatment virtually abolished this enhanced uptake of the dye. In the morphologic experiments, groups of rats were also injected with colloidal carbon (India ink, […] i.v.) 15 min before autopsy. At that time pieces of liver were processed for subsequent light or electron microscopic studies. […]

Compound	SGOT (U/l) [1] [U/l]	Liver histology (Scale: 0-4) [1]	India ink (μl/ml blood) 3 min (phagocytes) [μl/ml blood]	India ink (μl/ml blood) 6 min (phagocytes) [μl/ml blood]	India ink (μl/ml blood) 12 min (phagocytes) [μl/ml blood]	India ink (μl/ml blood) 24 min (phagocytes) [μl/ml blood]	Speed of action in carbon clearance compared with somatostatin (phagocytes)	Potency in carbon clearance compared with somatostatin (phagocytes)	Histologic examination of the liver after phalloidin [2]	Mortality after phalloidin ([2]; control 22 of 24 rats died)
C[C@@H](O)[C@@H]1NC(=O)[C@H](CCCCN)NC(=O)[C@@H](Cc2c[nH]c3ccccc23)NC(=O)[C@H](Cc2ccccc2)NC(=O)[C@@H]2CCCN2C(=O)[C@H](Cc2ccccc2)NC1=O [Analogue I, cyclo[L-Pro-Phe-D-Trp-Lys-Thr-L-Phe]] (cyclo(PF[dW]KTF))	573 ± 138	1.1 ± 0.1	12.5 ± 3.0	6.9 ± 0.9	2.6 ± 0.7	2.4 ± 0.5	faster acting	more potent than somatostatin	–	–
C[C@@H](O)[C@@H]1NC(=O)[C@H](CCCCN)NC(=O)[C@H](Cc2c[nH]c3ccccc23)NC(=O)[C@H](Cc2ccccc2)NC(=O)[C@H](Cc2ccccc2)NC(=O)[C@@H](Cc2ccccc2)NC1=O [Analogue II, cyclo[L-Phe-Phe-L-Trp-Lys-Thr-D-Phe]] (cyclo(FFWKT[dF]))	700	1.0	13.2 ± 2.0	5.6 ± 0.5	3.2 ± 0.9	1.8 ± 0.2	faster acting	more potent than somatostatin	–	–
C[C@H](N)C(=O)NCC(=O)N[C@H]1CSSC[C@@H](C(=O)O)NC(=O)[C@H](CO)NC(=O)[C@H]([C@@H](C)O)NC(=O)[C@H](Cc2ccccc2)NC(=O)[C@H]([C@@H](C)O)NC(=O)[C@H](CCCCN)NC(=O)[C@H](Cc2c[nH]c3ccccc23)NC(=O)[C@H](Cc2ccccc2)NC(=O)[C@H](Cc2ccccc2)NC(=O)[C@H](CC(N)=O)NC(=O)[C@H](CCCCN)NC1=O [Regular linear somatostatin, somatostatin]	–	–	11.7 ± 0.1	11.9 ± 2.6	5.3 ± 1.4	2.6 ± 0.1	–	–	–	–
somatostatin (AGCKNFFWKTFTSC; not fully specified (bridges); cysteine pairing not given here; UniProt P61278 103-116, looked up) [cyclic tetradecapeptide hormone, reference compound]	1757 ± 681	2.6 ± 0.3	–	–	–	–	–	–	milder vacuolization of hepatocytes and less congestion	significantly smaller number of rats
